Assay results taken from BindingDB's records for doi:10.1021/jm00018a006 (University of Arizona, 1995).
*1 amine or outer side, *2 acyl side, *3 side chain or, on linkers, in order; H or OH if unused. Where a SMILES comes first, the peptide text is derived from it. Side-chain parts run from the residue outwards. [ ]: non-standard residue; d: D form. X4 = CC(C)C[C@@H](CN([C@@H](CCCN=C(N)N)C(=O)[*:2])[*:1])N[*:3]

biological target: Delta-type opioid receptor (Cavia porcellus); assay: Binding affinity against delta opioid receptor of Guinea pig brain homogenate using [3H]c[D-Pen2,p-Cl-Phe4,D-Pen5]enkephalin

Row | SMILES | IC50 [nM]
1 | CC[C@H](C)[C@H](NC(=O)[C@H](CCCN=C(N)N)NC(=O)[C@H](CCCN=C(N)N)NC(=O)[C@H](CC(C)C)NC(=O)[C@H](Cc1ccccc1)NC(=O)CNC(=O)CNC[C@@H](N)Cc1ccc(O)cc1)C(=O)N[C@@H](CCCN=C(N)N)C(=O)N1CCC[C@H]1C(=O)N[C@@H](CCCCN)C(N)=O | 198
2 | CC[C@H](C)[C@H](NC(=O)[C@H](CCCN=C(N)N)NC[C@H](CCCCN)NC(=O)[C@H](CC(C)C)NC(=O)[C@H](Cc1ccccc1)NC(=O)CNC(=O)CNC(=O)[C@@H](N)Cc1ccc(O)cc1)C(=O)N[C@@H](CCCN=C(N)N)C(=O)N1CCC[C@H]1C(=O)N[C@@H](CCCCN)C(N)=O | 53
3 | CC[C@H](C)[C@H](NC(=O)[C@H](CCCN=C(N)N)NC(=O)[C@H](CCCN=C(N)N)NC[C@H](CC(C)C)NC(=O)[C@H](Cc1ccccc1)NC(=O)CNC(=O)CNC(=O)[C@@H](N)Cc1ccc(O)cc1)C(=O)N[C@@H](CCCN=C(N)N)C(=O)N1CCC[C@H]1C(=O)N[C@@H](CCCCN)C(N)=O (H-[X4]([Phe-Gly-Gly-Tyr])RIRPK-NH2) | 32
